# From patent US9168248B2, “Spiro compounds useful as inhibitors of stearoyl-coenzyme A delta-9 desaturase” (Merck Canada Inc., priority 2009, dated 2015)
# pIC50: −log10 of the molar value.
# Biological target: human SCD1 (Homo sapiens (Human), UniProt O00767)
# Experiment: SCD enzyme activity assay (conversion of radiolabeled stearoyl-CoA to oleoyl-CoA), human SCD1
# Type: biochemical
# Settings: human SCD1 from baculovirus/Sf9 expression system, reconstituted with cytochrome B5 and cytochrome B5 reductase; read-out: IC50 hSCD-1
# Method: I. SCD Enzyme Activity Assay:
# The potency of compounds of formula I against the stearoyl-CoA desaturase was determined by measuring the conversion of radiolabeled stearoyl-CoA to oleoyl-CoA using rat liver microsome or human SCD1 following previously published procedures with some modifications (Joshi, et al., J. Lipid Res., 18: 32-36 (1977); Talamo, et al., Anal. Biochem, 29: 300-304 (1969)). Liver microsome was prepared from male Wistar or Sprague Dawley rats on a high carbohydrate diet for 3 days (LabDiet #5803, Purina). The livers were homogenized (1:10 w/v) in a buffer containing 250 mM sucrose, 1 mM EDTA, 5 mM DTT and 50 mM Tris-HCl (pH 7.5). After a 100,000×g centrifugation for 60 min, the liver microsome pellet was suspended in a buffer containing 100 mM sodium phosphate, 20% glycerol, 2 mM DTT, and stored at −78° C. Human SCD1 desaturase system was reconstituted using human SCD1 from a baculovirus/Sf9 expression system, cytochrome B5 and cytochrome B5 reductase. Typically, test compound in 2 μL DMSO was incubated for […] at room temperature with 180 μL of the SCD enzyme in a buffer containing 100 mM Tris-HCl (pH 7.5), ATP (5 mM), Coenzyme-A (0.1 mM), Triton X-100 (0.5 mM) and NADH (2 mM). The reaction was initiated by the addition of 20 μL of [^3H]-stearoyl-CoA (final concentration=2 μM, radioactivity concentration=1 μCi/mL). After 10 mM, the reaction mixture (80 μL) was mixed with a calcium chloride/charcoal aqueous suspension (100 μL charcoal (10% w/v) plus 25 μL CaCl2 (2N). After centrifugation to precipitate the radioactive fatty acid species, tritiated water released from 9,10-[^3H]-stearoyl-CoA by the SCD enzyme was quantified on a scintillation counter.
# human SCD1, sequence (O00767 whole entry): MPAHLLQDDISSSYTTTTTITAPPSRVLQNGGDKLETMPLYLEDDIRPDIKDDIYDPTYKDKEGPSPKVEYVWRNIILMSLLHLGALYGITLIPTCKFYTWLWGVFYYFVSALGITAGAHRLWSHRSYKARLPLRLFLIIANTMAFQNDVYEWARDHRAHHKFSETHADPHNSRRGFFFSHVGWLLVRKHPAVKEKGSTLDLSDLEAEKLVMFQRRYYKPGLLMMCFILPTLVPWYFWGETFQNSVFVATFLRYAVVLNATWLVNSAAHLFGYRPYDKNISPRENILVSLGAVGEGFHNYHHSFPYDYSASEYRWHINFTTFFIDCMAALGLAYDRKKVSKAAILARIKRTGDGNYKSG
row,Molecule,pIC50
1,"O=C(O)Cn1nnc(-c2nnc(N3CCC4(CCc5c(Cl)cccc5O4)CC3)s2)n1 [Example 1, {5-[5-(5-Chloro-3,4-dihydro-1′H-spiro[chromene-2,4′-piperidin]-1′-yl)-1,3,4-thiadiazol-2-yl]-2H-tetrazol-2-yl}acetic acid]",7.92
2,"O=C(O)Cn1nnc(-c2cc(N3CCC4(CCc5c(Cl)cccc5O4)CC3)no2)n1 [Example 2, {5-[3-(5-Chloro-3,4-dihydro-1′H-spiro[chromene-2,4′-piperidin]-1′-yl)isoxazol-5-yl]-2H-tetrazol-2-yl}acetic acid]",7.96
3,"O=C(O)Cn1nnc(-c2cnc(N3CCC4(CCc5c(Cl)cccc5O4)CC3)s2)n1 [Example 3, {5-[2-(5-Chloro-3,4-dihydro-1′H-spiro[chromene-2,4′-piperidin]-1′-yl)-1,3-thiazol-5-yl]-2H-tetrazol-2-yl}acetic acid]",7.89
4,"O=C(O)Cn1nnc(-c2cnc(N3CCC4(CC3)CC(=O)c3ccccc3O4)s2)n1 [Example 4, {5-[2-(4-Oxo-3,4-dihydro-1′H-spiro[chromene-2,4′-piperidin]-1′-yl)-1,3-thiazol-5-yl]-2H-tetrazol-2-yl}acetic acid]",7.39
5,"O=C(O)Cn1nnc(-c2cnc(N3CCC4(CCc5ccccc54)CC3)s2)n1 [Example 5, {5-[2-(2,3-Dihydro-1′H-spiro[indene-1,4′-piperidin]-1′-yl)-1,3-thiazol-5-yl]-2H-tetrazol-2-yl}acetic acid]",7.31
6,"O=C(O)Cn1nnc(-c2cnc(N3CCC4(CC3)COc3ccccc34)s2)n1 [Example 6, {5-[2-(1′H-Spiro[1-benzofuran-3,4′-piperidin]-1′-yl)-1,3-thiazol-5-yl]-2H-tetrazol-2-yl}acetic acid]",7.19
7,"O=C(O)Cn1nnc(-c2cnc(N3CCC4(C=Cc5ccccc54)CC3)s2)n1 [Example 7, {5-[2-(1′H-Spiro[indene-1,4′-piperidin]-1′-yl)-1,3-thiazol-5-yl]-2H-tetrazol-2-yl}acetic acid]",6.61
8,"O=C(O)Cn1nnc(-c2nnc(N3CCC4(CC3)CC(=O)c3ccccc3O4)s2)n1 [Example 8, {5-[5-(4-Oxo-3,4-dihydro-1′H-spiro[chromene-2,4′-piperidin]-1′-yl)-1,3,4-thiadiazol-2-yl]-2H-tetrazol-2-yl}acetic acid]",6.15
9,"O=C(O)Cn1nnc(-c2cnc(N3CCC4(CC3)NC(=O)c3ccccc3O4)s2)n1 [Example 9, {5-[2-(4-Oxo-3,4-dihydro-1′H-spiro[1,3-benzoxazine-2,4′-piperidin]-1′-yl)-1,3-thiazol-5-yl]-2H-tetrazol-2-yl}acetic acid]",6.74
10,"O=C(O)Cn1nnc(-c2nnc(N3CCC4(CC3)Cc3ccccc3C(=O)O4)s2)n1 [Example 10, {5-[5-(1-Oxo-1,4-dihydro-1′H-spiro[isochromene-3,4′-piperidin]-1′-yl)-1,3,4-thiadiazol-2-yl]-2H-tetrazol-2-yl}acetic acid]",6.47
11,"COc1cccc2c1CCC1(CCN(c3nnc(-c4nnn(CC(=O)O)n4)s3)CC1)O2 [Example 11, {5-[5-(5-Methoxy-3,4-dihydro-1′H-spiro[chromene-2,4′-piperidin]-1′-yl)-1,3,4-thiadiazol-2-yl]-2H-tetrazol-2-yl}acetic acid]",7.89
12,"O=C(O)Cn1nnc(-c2nnc(N3CCC4(CCc5c(O)cccc5O4)CC3)s2)n1 [Example 12, {5-[5-(5-Hydroxy-3,4-dihydro-1′H-spiro[chromene-2,4′-piperidin]-1′-yl)-1,3,4-thiadiazol-2-yl]-2H-tetrazol-2-yl}acetic acid]",6.44
13,"O=C(O)Cn1nnc(-c2cc(N3CCC4(CCc5c(OC(F)(F)F)cccc5O4)CC3)no2)n1 [Example 16, (5-{3-[5-(Trifluoromethoxy)-3,4-dihydro-1H-spiro[chromene-2,4′-piperidin]-1′-yl]isoxazol-5-yl}-2H-tetrazol-2-yl)acetic acid]",9.00
14,"O=C(O)Cn1nnc(-c2nnc(N3CCC4(CCc5c(OC(F)(F)F)cccc5O4)CC3)s2)n1 [Example 17, (5-{5-[5-(Trifluoromethoxy)-3,4-dihydro-1′H-spiro[chromene-2,4′-piperidin]-1′-yl]-1,3,4-thiadiazol-2-yl}-2H-tetrazol-2-yl)acetic acid]",9.00
15,"O=C(O)Cn1nnc(-c2cnc(N3CCC4(CCc5c(OC(F)(F)F)cccc5O4)CC3)s2)n1 [Example 18, (5-{2-[5-(Trifluoromethoxy)-3,4-dihydro-1′H-spiro[chromene-2,4′-piperidin]-1′-yl]-1,3-thiazol-5-yl}-2H-tetrazol-2-yl)acetic acid]",9.00
16,"O=C(O)Cn1nnc(-c2cc(N3CCC4(CCc5c(Br)cccc5O4)CC3)no2)n1 [Example 22, {5-[3-(5-Bromo-3,4-dihydro-1′H-spiro[chromene-2,4′-piperidin]-1′-yl)isoxazol-5-yl]-2H-tetrazol-2-yl}acetic acid]",9.00
17,"O=C(O)Cn1nnc(-c2cnc(N3CCC4(CCc5c(Br)cccc5O4)CC3)s2)n1 [Example 28, {5-[2-(5-Bromo-3,4-dihydro-1′H-spiro[chromene-2,4′-piperidin]-1′-yl)-1,3-thiazol-5-yl]-2H-tetrazol-2-yl}acetic acid]",9.00
18,"Cc1cccc2c1CCC1(CCN(c3ncc(-c4nnn(CC(=O)O)n4)s3)CC1)O2 [Example 42, {5-[2-(5-Methyl-3,4-dihydro-1′H-spiro[chromene-2,4′-piperidin]-1′-yl)-1,3-thiazol-5-yl]-2H-tetrazol-2-yl}acetic acid]",9.00
19,"O=C(O)Cn1nnc(-c2cnc(N3CCC4(CC3)Cc3cccc(Cl)c3C(=O)O4)s2)n1 [Example 46, {5-[2-(8-Chloro-1-oxo-1,4-dihydro-1′H-spiro[isochromene-3,4′-piperidin]-1′-yl)-1,3-thiazol-5-yl]-2H-tetrazol-2-yl}acetic acid]",7.68
20,O=C(O)Cn1nnc(-c2cnc(N3CCC4(CC3)NC(=O)c3c(Cl)cccc3O4)s2)n1 [Example 54],7.21
21,"O=C(O)Cn1ccn(-c2cnc(N3CCC4(CCc5c(Cl)cccc5O4)CC3)s2)c1=O [Example 68, {3-[2-(5-Chloro-3,4-dihydro-1′H-spiro[chromene-2,4′-piperidin]-1′-yl)-1,3-thiazol-5-yl]-2-oxo-2,3-dihydro-1H-imidazol-1-yl}acetic acid]",8.52
22,"O=C(O)Cn1nnc(-c2nnc(N3CCC4(CCc5c(cccc5C(F)(F)F)O4)CC3)s2)n1 [Example 75, (5-{5-[5-(Trifluoromethyl)-3,4-dihydro-1′H-spiro[chromene-2,4′-piperidin]-1′-yl]-1,3,4-thiadiazol-2-yl}-2H-tetrazol-2-yl)acetic acid]",9.00
23,"O=C(O)Cn1nnc(-c2cnc(N3CCC4(CCc5c(cccc5C(F)(F)F)O4)CC3)s2)n1 [Example 76, (5-{2-[5-(Trifluoromethyl)-3,4-dihydro-1′H-spiro[chromene-2,4′-piperidin]-1′-yl]-1,3-thiazol-5-yl}-2H-tetrazol-2-yl)acetic acid]",9.00
24,"{4-[5-(5-Chloro-3,4-dihydro-1′H-spiro[chromene-2,4′-piperidin]-1′-yl)-1,3,4-thiadiazol-2-yl]-1H-1,2,3-triazol-1-yl}acetic acid [Example 72]",8.52
